Measurements from US20200369629A1, “BENZAMIDE COMPOUNDS AND THEIR USE AS HERBICIDES” (BASF SE, priority 2017, published 2020).

Tests used:
Format in all cases: in vivo
[1] = tested on: ALOMY (Alopecurus myosuroiedes); assay: Greenhouse post-emergence test, test series 1, ALOMY; settings: application rate 62.5 g/ha, scale 0 to 100 (100 = complete destruction, 0 = no damage)
Source text: (§1) The seeds of the test plants were sown separately for each species. For the pre-emergence treatment, the active ingredients, which had been suspended or emulsified in water, were applied directly after sowing by means of finely distributing nozzles. The containers were irrigated gently to promote germination and growth and subsequently covered with transparent plastic hoods until the plants had rooted. This cover caused uniform germination of the test plants, unless this had been impaired by the active ingredients. For the post-emergence treatment, the test plants were first grown to a height of 3 to 15 cm, depending on the plant habit, and only then treated with the active ingredients which had been suspended or emulsified in water. For this purpose, the test plants were either sown directly and grown in the same containers, or they were first grown separately as seedlings and transplanted into the test containers a few days prior to treatment. Depending on the species, the plants were kept at 10-25° C. or 20-25° C., respectively. The test period extended over 2 to 4 weeks. During this time, the plants were tended, and their response to the individual treatments was evaluated. Evaluation was carried out using a scale from 0 to 100. 100 means no emergence of the plants, or complete destruction of at least the aerial moieties, and 0 means no damage, or normal course of growth. A good herbicidal activity is given at values of at least 70 and a very good herbicidal activity is given at values of at least 85. Test Series 1: At an application rate of 62.5 g/ha the following compounds were tested in post-emergence tests against: ALOMY (Alopecurus myosuroiedes)

AVEFA (Avena fatua) = assay: Greenhouse post-emergence test, test series 1, AVEFA; settings: application rate 62.5 g/ha, scale 0 to 100 (100 = complete destruction, 0 = no damage)
Source text: as §1, with “AVEFA (Avena fatua)” for “ALOMY (Alopecurus myosuroiedes)”

[2] = tested on: ECHCG (Echinocloa crus-galli); assay: Greenhouse post-emergence test, test series 1, ECHCG; settings: Echinochloa crus-galli, application rate 62.5 g/ha, scale 0 to 100 (100 = complete destruction, 0 = no damage)
Source text: as §1, with “ECHCG (Echinocloa crus-galli)” for “ALOMY (Alopecurus myosuroiedes)”

SETFA (Setaria faberi) = assay: Greenhouse pre-emergence test, test series 2, SETFA; settings: application rate 125 g/ha, scale 0 to 100 (100 = no emergence, 0 = no damage)
Source text: as §1, with “Series 2:” for “Series 1:”, “of 125” for “of 62.5”, “in pre-emergence” for “in post-emergence”, “tests against SETFA (Setaria faberi)” for “tests against: ALOMY (Alopecurus myosuroiedes)”

Cc1c(NC(=O)N(C)CC(F)(F)F)c(Cl)cc(F)c1C(=O)Nc1nnnn1C [Example 12]
> 85%: pest or weed control at 62.5 g/ha [1] | pest or weed control at 62.5 g/ha (AVEFA (Avena fatua)) | pest or weed control at 62.5 g/ha [2]

CC(C)N(CC(F)(F)F)C(=O)Nc1c(C(F)(F)F)cc(F)c(C(=O)Nc2nnnn2C)c1Cl [Example 14]
> 85%: pest or weed control at 62.5 g/ha [1] | pest or weed control at 62.5 g/ha (AVEFA (Avena fatua)) | pest or weed control at 62.5 g/ha [2] | pest or weed control at 125 g/ha (SETFA (Setaria faberi))

CCN(CC(F)(F)F)C(=O)Nc1c(Cl)cc(F)c(C(=O)Nc2nnnn2C)c1C [Example 18]
> 85%: pest or weed control at 62.5 g/ha [1] | pest or weed control at 62.5 g/ha (AVEFA (Avena fatua)) | pest or weed control at 62.5 g/ha [2] | pest or weed control at 125 g/ha (SETFA (Setaria faberi))

Cc1c(NC(=O)N(C)CC(F)(F)F)c(Br)cc(F)c1C(=O)Nc1nnnn1C [Example 1, 4-bromo-6-fluoro-2-methyl-N-(1-methyltetrazol-5-yl)-3-[[methyl(2,2,2-trifluoroethyl)carbamoyl]amino]benzamide]
> 85%: pest or weed control at 62.5 g/ha [1] | pest or weed control at 62.5 g/ha (AVEFA (Avena fatua)) | pest or weed control at 62.5 g/ha [2] | pest or weed control at 125 g/ha (SETFA (Setaria faberi))

Cc1c(NC(=O)N(CC(F)(F)F)CC(F)(F)F)c(Cl)cc(F)c1C(=O)Nc1nnnn1C [Example 19]
> 85%: pest or weed control at 62.5 g/ha [1] | pest or weed control at 62.5 g/ha (AVEFA (Avena fatua)) | pest or weed control at 62.5 g/ha [2]

CCN(CC(F)(F)F)C(=O)Nc1c(Cl)cc(F)c(C(=O)Nc2nnnn2C)c1Cl [Example 8]
> 85%: pest or weed control at 62.5 g/ha (AVEFA (Avena fatua)) | pest or weed control at 62.5 g/ha [2] | pest or weed control at 125 g/ha (SETFA (Setaria faberi))

Cn1nnnc1NC(=O)c1c(F)cc(C(F)(F)F)c(NC(=O)N(CC(F)(F)F)CC(F)(F)F)c1Cl [Example 22]
> 85%: pest or weed control at 62.5 g/ha [1] | pest or weed control at 62.5 g/ha (AVEFA (Avena fatua)) | pest or weed control at 62.5 g/ha [2] | pest or weed control at 125 g/ha (SETFA (Setaria faberi))

Cc1c(NC(=O)N(CC(F)(F)F)C2CC2)c(Cl)cc(F)c1C(=O)Nc1nnnn1C [Example 21]
> 85%: pest or weed control at 62.5 g/ha [1] | pest or weed control at 62.5 g/ha (AVEFA (Avena fatua)) | pest or weed control at 62.5 g/ha [2] | pest or weed control at 125 g/ha (SETFA (Setaria faberi))

CN(CC(F)(F)F)C(=O)Nc1c(Cl)cc(F)c(C(=O)Nc2nnnn2C)c1Cl [Example 9, 2,4-dichloro-6-fluoro-N-(1-methyltetrazol-5-yl)-3-[[methyl(2,2,2-trifluoroethyl)carbamoyl]amino]benzamide]
> 85%: pest or weed control at 62.5 g/ha [1] | pest or weed control at 62.5 g/ha (AVEFA (Avena fatua)) | pest or weed control at 62.5 g/ha [2]

CN(CC(F)(F)F)C(=O)Nc1c(C(F)(F)F)cc(F)c(C(=O)Nc2nnnn2C)c1Cl [Example 10]
> 85%: pest or weed control at 62.5 g/ha [1] | pest or weed control at 62.5 g/ha (AVEFA (Avena fatua)) | pest or weed control at 62.5 g/ha [2] | pest or weed control at 125 g/ha (SETFA (Setaria faberi))

Cc1c(NC(=O)N(CC(F)(F)F)C(C)C)c(Cl)cc(F)c1C(=O)Nc1nnnn1C [Example 13]
> 85%: pest or weed control at 62.5 g/ha (AVEFA (Avena fatua)) | pest or weed control at 62.5 g/ha [2] | pest or weed control at 125 g/ha (SETFA (Setaria faberi))

CCN(CC(F)(F)F)C(=O)Nc1c(Br)cc(F)c(C(=O)Nc2nnnn2C)c1C [Example 2, 4-bromo-6-fluoro-2-methyl-N-(1-methyltetrazol-5-yl)-3-[[ethyl(2,2,2-trifluoroethyl)carbamoyl]amino]benzamide]
> 85%: pest or weed control at 62.5 g/ha [1] | pest or weed control at 62.5 g/ha (AVEFA (Avena fatua)) | pest or weed control at 62.5 g/ha [2] | pest or weed control at 125 g/ha (SETFA (Setaria faberi))

Cc1c(NC(=O)N(CC(F)(F)F)CC(F)(F)F)c(Br)cc(F)c1C(=O)Nc1nnnn1C [Example 3]
> 85%: pest or weed control at 62.5 g/ha [1] | pest or weed control at 62.5 g/ha (AVEFA (Avena fatua)) | pest or weed control at 62.5 g/ha [2] | pest or weed control at 125 g/ha (SETFA (Setaria faberi))

CC(C)N(CC(F)(F)F)C(=O)Nc1c(Cl)cc(F)c(C(=O)Nc2nnnn2C)c1Cl [Example 20]
> 85%: pest or weed control at 62.5 g/ha [1] | pest or weed control at 62.5 g/ha (AVEFA (Avena fatua)) | pest or weed control at 62.5 g/ha [2]

Cc1c(NC(=O)N(CC(F)(F)F)C2CC2)c(Br)cc(F)c1C(=O)Nc1nnnn1C [Example 6]
> 85%: pest or weed control at 62.5 g/ha [1] | pest or weed control at 62.5 g/ha (AVEFA (Avena fatua)) | pest or weed control at 62.5 g/ha [2] | pest or weed control at 125 g/ha (SETFA (Setaria faberi))

Cn1nnnc1NC(=O)c1c(F)cc(Cl)c(NC(=O)N(CC(F)(F)F)C2CC2)c1Cl [Example 7]
> 85%: pest or weed control at 62.5 g/ha [1] | pest or weed control at 62.5 g/ha (AVEFA (Avena fatua)) | pest or weed control at 62.5 g/ha [2] | pest or weed control at 125 g/ha (SETFA (Setaria faberi))
